Values of other authors as cited in US20250353873A1, “COMPOUNDS AND METHODS FOR MODULATING APOE EXPRESSION” (Ionis Pharmaceuticals, Inc., priority 2024, published 2025).
e = 2'-O-(2-methoxyethyl) (MOE); k = constrained ethyl (cEt); d = 2'-deoxy (DNA)

Test system: BJAB cells
Settings: known behaviour in the assay; cited from earlier work

Row | Substance | responder class for CCL22 release in the BJAB assay (internal standard)
1 | Compound No. 735746: 3-10-3 cEt gapmer, TTCAAGGTGAACTGTT, internal standard (sugars from the 5' end k3 d10 k3, backbone and methylation of C not given here) | moderate responder (mildly inflammatory)
2 | Compound No. 785674: kk-9-eeekk cEt gapmer with MOE modifications, TATTTCTGCTCCAGGT, internal standard (sugars from the 5' end k2 d9 e3 k2, backbone and methylation of C not given here) | high responder (inflammatory)
